{"source": "patent US20220047658A1", "about": "“TCM ADDITION AND SUBTRACTION PRESCRIPTION USED PREVENTION/TREATMENT OF METABOLIC SYNDROME AND COMPLICATIONS” (priority 2019, published 2022)", "format_in_all_cases": "in vivo", "key": {"db/db mice [1]": {"tested_on": "db/db mice", "experiment": "Test for urine creatinine (diabetic nephropathy test)", "details": "29-d raise, MET 350 mg/kg, FIG. 6", "excerpt": "(§1) Overnight urine is collected and placed on crushed ice to test urine total protein, urine albumin, urine microalbumin, and urine creatinine.\n(§2) To investigate TCM complex for prevention and treatment of type II diabetes mellitus in animal model, grade SPF BKS.Cg-Dock7m+/+Leprdb/J mice (referred to as db/db mice for short) were used to conduct a hypoglycemic experiment validation. The mice were allowed with free access to feed and water. The mice were assigned into 4 groups (4 mice per group), and were administered intragastrically with the complex, once per day. […] The animals of each group were orally administered with the sample to Week 4. Urine and blood were collected 4 week later.\n(§3) The drugs in the drug groups included Poria, Semen Coicis, Rhizoma Dioscoreae, Semen Euryales, Semen Nelumbinis, Endothelium Corneum Gigeriae Galli, and Paeonia Lactiflora; the preparation method is that, Poria, Semen Coicis, Rhizoma Dioscoreae, Semen Euryales, Semen Nelumbinis, Endothelium Corneum Gigeriae Galli, and Paeonia Lactiflora were prepared and then compounded in a weight ratio of 1:1:1:1:1:1:2 to produce a powder. The obtained powder was diluted in a certain proportion to obtain RX−6 of the low dose (6 mg/kg) drug group, and RX-12 of the high dose (12 mg/kg) drug group. […]"}, "db/db mice [2]": {"tested_on": "db/db mice", "experiment": "Quantitative test for UTP 24-h urine protein (diabetic nephropathy test)", "details": "D29, RX-6 6 mg/kg, RX-12 12 mg/kg, MET 350 mg/kg, NOR 39.30 mg/DL, FIG. 3", "excerpt": "as §1, §2\nas §3, with “powder.” for “powder. The obtained powder was diluted in a certain proportion to obtain RX−6 of the low dose (6 mg/kg) drug group, and RX-12 of the high dose (12 mg/kg) drug group.”\nQuantitative test for 24 h urine protein (UTP24) is a urine test method in which 24-h discharged total urine is collected to conduct a […] test."}, "db/db mice [3]": {"tested_on": "db/db mice", "experiment": "Measurement of fasting blood glucose level", "details": "MET 350 mg/kg, 2 d after oral administration, data not shown", "experimental": "Fasting blood glucose means blood glucose level under the basal condition, reflecting the basal function of pancreatic islet B cells, and is an important criterion for diagnosis of diabetes mellitus. Oral glucose tolerance test means determination of fasting blood glucose after animals are fasted, and then animals are administered with the drug and administered intragastrically with glucose solution at the corresponding timepoints, and blood glucose is measured prior to intragastric administration of glucose, and 30 min, 60 min and 120 min after intragastric administration of glucose.\nas §2, with “later. […]” for “later.”\nAfter animals were fasted for 4-6 h, blood was collected at tail end to measure fasting blood glucose. Fasting blood glucose was measured for 4 times, i.e.: prior to grouping, and D2, D7, and D15 after administration of the drug."}, "db/db mice [4]": {"tested_on": "db/db mice", "experiment": "Measurement of glycosylated hemoglobin (HbAlc) concentration", "details": "D29, once per day intragastric, RX-6 6 mg/kg, RX-12 12 mg/kg, MET 350 mg/kg, NOR 8.85%, FIG. 2", "excerpt": "Glycosylated hemoglobin (GHb) is a product hemoglobin in red blood cells, conjugated with saccharides in serum. GHb is formed via slow, persistent, and irreversible glycation; its content is dependent on blood glucose concentration, and exposure duration of blood glucose to hemoglobin, and independent of blood collection time, patients' fasting or non-fasting status, or insulin use or non-use, etc. Therefore, GHb may efficiently reflect blood glucose control in patients with diabetes mellitus in the past 1-2 month.\nTest method: after animal are fasted, 20 μL of whole blood is collected and placed into an EP tube containing HbAlc diluent; the content of HbAlc is measured by a full-automatic analyzer. The specific method refers to the Instructions of the Kit.\nTo investigate TCM complex for prevention and treatment of type II diabetes mellitus in animal model, grade SPF BKS.Cg-Dock7m+/+Leprdb/J mice (referred to as db/db mice for short) were used to conduct a hypoglycemic experiment validation. The mice were allowed with free access to feed and water. […]\nThe concentration was measured on D29 after oral administration of the drug. The animals were fasted for 4-6 h, and then anesthetized by inhalation of isoflurane; […] of whole blood was collected from orbital venous plexus and placed into a EP tube containing HbAlc diluent; the content of HbAlc was measured by a full-automatic analyzer. […]"}, "db/db mice [5]": {"tested_on": "db/db mice", "experiment": "Non-fasting blood glucose level", "details": "MET 350 mg/kg, D4 after oral administration", "experimental": "The measured value of 2-H postprandial blood glucose test is the most valuable and may reflect reserve function of pancreatic islet B cells. Blood glucose is measured after animals eat feed.\nas §2, with “later. […]” for “later.”\nThe animals were fed randomly and then blood was collected at tail end to measure non-fasting blood glucose level. Fasting blood glucose was measured for […], i.e.: prior to grouping, and 24 h, D4, D7, D15, D21, and D27 after administration of the drug."}, "db/db mice [6]": {"tested_on": "db/db mice", "experiment": "Test for mAlb urine microalbumin (diabetic nephropathy test)", "details": "D29, RX-6 6 mg/kg, RX-12 12 mg/kg, MET 350 mg/kg, NOR 20.10 mg/L, FIG. 5", "excerpt": "as §1, §2, §3"}}, "data": [{"smiles": "CN(C)C(=N)N=C(N)N", "note": "[MET, metformin]", "values": [{"measurement": "urine creatinine increased than that in the negative control group NOR", "setting": "db/db mice [1]", "result": 10.5, "unit": "µM"}, {"measurement": "UTP24 h urine protein", "setting": "db/db mice [2]", "result": 39.65, "unit": "mg/dL"}, {"measurement": "fasting blood glucose level compared with negative control group NOR", "setting": "db/db mice [3]", "result": "less than that in negative control group NOR"}, {"measurement": "glycosylated hemoglobin value (HbAlc)", "setting": "db/db mice [4]", "result": 6, "unit": "%"}, {"measurement": "non-fasting blood glucose level compared with control", "setting": "db/db mice [5]", "result": "less than that in the positive control"}, {"measurement": "mAlb urine microalbumin content", "setting": "db/db mice [6]", "result": 8.50, "unit": "mg/L"}]}]}
